Key:
active caspases = test: In vivo labeling of active caspases with [125I]-M808 in CLP-operated mice (thymi extracts); parameters: species or system mouse; settings: i.v. injection in CLP mice, radiolabeled p17 in thymi, FIG. 6
Method: FIG. 6. A-Schematic representation of in vivo labeling of active caspases with [^125I]-M808 in CLP-operated mice. Mice underwent either sham surgery (n=2) or CLP surgery (n=5). [^125I]-M808 was injected intravenously 23.15 h later, and animals were euthanized 24 h post-surgery. B-Caspase-3 western blot of mouse thymi extracts following CLP and administration of [^125I]-M808. Arrows indicate full length pro-caspase-3 (p32) and the processed caspase large subunit (p17). C— in-vivo [^125I]-M808-labeled protein in thymi extracts from septic mice. Arrow points to a radiolabeled caspase large subunit.
Female Sprague-Dawley rats (250-300 g; Charles River, St-Constant, Qc, Canada) and ND4 mice (20-25 g Harlane Sprague-Dawley) were housed in a 12 hour light/dark cycle with free access to food and water. All procedures were carried out under appropriate Animal Care Committee approval in strict accordance to Merck and Co. animal care policies. For Cecal Ligation and Perforation, animals were anesthetized with 2.5% isoflurane and body temperature maintained by use of a thermoregulated heated blanket. A midline incision was made in the abdominal wall of the animal and the cecum exteriorized. The cecum was ligated with a nylon (4-0) suture proximal to the ileocecal valve. In mice, perforation of the cecum was done using a 23 g needle passed through the distal portion of the cecum. […]

caspase-3 = target: T1, caspase-3 (Rattus norvegicus, UniProt P55213); test: Caspase-3 western blot in cultured rat thymocytes; type: cell-based; settings: FIG. 5B
T1 construct: endogenous in cells; host or cells: primary rat thymocytes (Sprague-Dawley), spontaneous apoptosis in culture
T1 sequence (P55213 29-175 limits assumed): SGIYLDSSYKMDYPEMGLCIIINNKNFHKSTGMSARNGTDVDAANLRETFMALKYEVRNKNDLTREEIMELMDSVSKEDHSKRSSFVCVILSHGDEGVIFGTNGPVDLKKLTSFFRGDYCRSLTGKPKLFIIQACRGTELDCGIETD
T1 sequence (P55213 176-277 limits assumed): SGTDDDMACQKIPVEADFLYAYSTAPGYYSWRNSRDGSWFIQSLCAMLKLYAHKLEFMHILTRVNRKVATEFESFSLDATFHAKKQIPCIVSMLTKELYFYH
Method: Rat thymocytes were cultured for 24 hours at a density of 10×10^6 cells/ml in CytoSF4 supplemented with 2 mM L-glutamine and penicillin-streptamycin and the indicated concentration of caspase inhibitors.
Denatured protein extracts in 1× Laemli buffer were resolved through a 18% acrylamide gradient SDS-PAGE gel (Invitrogen) at 30 mA in Tris-Glycine buffer. Samples labeled with [^125I]-M808 were migrated until the dye front reached 0.5 cm above the end of the gel, and acrylamide 1 cm above the dye front was cut out to remove all free [^125I]-M808 and reduce background. The gels were fixed for 45 minutes in a 40% Methanol-10% Acetic acid solution and dried for 90 min at 80° C. before exposure on MS Kodak film with MS intensifying screens. For Western blotting, proteins were transferred onto a […] nitrocellulose membrane (Invitrogen) in Tris-Glycine-20% methanol buffer at 40V for 2 hours. Non-specific protein binding was minimized by incubating the membranes for 1 hour in blocking buffer (5% non-fat milk/TBS/0.1% Tween-20). Anti-caspase-3 (W R280 and MF467) were diluted 2000-fold in blocking buffer and incubated for 1 hour at 25° C. […] Densitometry was performed using a BioRad instrument and QuantityOne software. […]

| Structure (SMILES) | detection of active caspases in vivo (active caspases) | impact on caspase-3 cleavage (caspase-3) |
| --- | --- | --- |
| COc1ccc(I)cc1CC(=O)N[C@H](C(=O)NC(CC(=O)O)C(=O)CF)C(C)C (stereo partly drawn) [[^125I]-M808, 5-fluoro-3-({N-[(5-iodo-2-methoxyphenyl)acetyl]-L-valyl}amino)-4-oxopentanoic acid] | can detect active caspases in vivo |  |
| CCCCCN(C)CC(=O)[C@H](CC(=O)O)NC(=O)[C@H](CC)n1cc(C(C)(C)C)nc(NCc2nonc2C)c1=O [Example M867, (3S)-3-({(2S)-2-[5-tert-butyl-3-{[(4-methyl-1,2,5-oxadiazol-3-yl)methyl]amino}-2-oxopyrazin-1(2H)-yl]butanoyl}amino)-5-[methyl(pentyl)amino]-4-oxopentanoic acid] |  | minimal impact on caspase-3 cleavage except at the highest concentration |

Reference: patent publication US20060069038A1, “Irreversible caspase-3 inhibitors as active site probes” (priority 2003, published 2006)
